Data set [1] concerns respiratory syncytial virus (RSV) induced cough. Nature of the data set: Mouse cough model of respiratory syncytial virus infection. The class given is in vivo. Conditions: 1 mg perioral per mouse, 1 hr before count.
For data set [2], the target named is TRPM8 (Mus musculus (Mouse), UniProt Q8R4D5). Nature of the data set: TRPM8 Fura-2 calcium assay in transfected CHO cells (Andersson et al.). The class given is cell-based. As to conditions: FIG. 4. Here is the method: FIG. 4. is a graph of fluorescence response (Δ ratio 340/380) in TRPM8 transfected cells as a function of the logarithm of the concentration of the test compound, expressed in μM, for DIPA-1-7 (black circle), 3,4-7 (open squares), or 3,4-6 (open triangles). The assays were conducted by Andersson et al. of King's College, London, UK, using his methods described in “Modulation of the cold-activated channel TRPM8 by lysophospholipids and polyunsaturated fatty acids. Journal Neuroscience 27 (12): 3347-3355, 2007.
In a second set, tests were made on “mixed” isopropyl-sec-butylphosphorylhexane and heptane analogs described as 3,4-6 and 3,4-7 in Table 2, and results shown in FIG. 4. […] Emission intensity from cells was measured for 90 sec, at every 4 or 5 sec, using excitation wavelengths of 340 and 380 nm and an emission of 520 nm. Fluorescence emission intensity ratios at 340 nm/380 nm excitation (R, in individual cells) were recorded with a FlexStation and the ImageMaster suite of software (PTI, South Brunswick, N.J.). Samples were tested in triplicate at each concentration and the averaged values analyzed by non-linear regression using an a sigmoidal function fit of the points to obtain an estimated EC50 (median effective concentration) (GraphPad Prism software, La Jolla, Calif.). […]

The test system of data set [3] is Oral Cavity and Pharynx. The data set is described as follows: Sensory qualities of compounds in syrup applied to base of tongue of volunteers. The class given is in vivo, human. The protocol: The DIPA compounds was 5 mg/mL in cherry-flavored syrup in a volume of 0.8 mL per dose. The sensory effect were recorded every 5 min for 1 hr.
Tests were on four volunteers, with 3 to 5 trials per substance. Compounds were prepared in cherry-flavored syrup at 5 mg/mL and administered ˜0.8 mL per dose with a 2 mL plastic vial to the base of the tongue. The subjects asked to rate the sensations for cooling intensity, cold discomfort and adverse taste.
The concentration of the DIPA compounds was 5 mg/mL in cherry-flavored syrup administered in a volume of 0.8 mL per dose. The sensory effect were recorded every 5 min for 1 hr.

Data set [4] in a line: Flux through excised hairless mouse skin in vitro. The class given is in vitro ADME. Here is the method: Test chemicals dissolved in a gel were placed in an incubation well for 8 hr and the permeated amount of the chemical measured by a high pressure liquid chromatograph equipped with a refractive detector. These tests were conducted by Prof Choi of Chosun University, Korea. The flux of DIPA-1-7 was ˜5× greater than DIPA-1-9.
To further study the skin permeation of DIPA compounds, tests were conducted on the flux of DIPA-1-7 and DIPA-1-9 through excised hairless mouse skin in vitro. These tests were conducted by Prof Choi, Dean of the School of Pharmacy of Chosun University, Korea, and the results shown in (FIG. 5).

Data set [5] concerns the target cloned hTRPM8 channel (Homo sapiens (Human), UniProt Q7Z2W7). Nature of the data set: TRPM8 agonist activity, Fluo-8 calcium FLIPR assay (ChanTest). The data set is classed as cell-based. The protocol:
In the first set of data, the potency and in vitro effects of test compounds were evaluated on cloned hTRPM8 channel (encoded by the human TRPM8 gene, expressed in CHO cells) using a Fluo-8 calcium kit and a Fluorescence Imaging Plate Reader (FLIPR^TETRA™) instrument. […] Test solutions were in a HEPES-buffered saline, in 384-well plates, and placed into the FLIPR instrument (Molecular Devices Corporation, Union City, Calif., USA). […] The test cells were Chinese Hamster Ovary (CHO) cells stably transfected with human TRPM8 cDNAs. Concentration-response data were analyzed via FLIPR Control software) and fitted to a Hill equation for the EC50.

For data set [6], the system named is acid-induced swallowing movements. Nature of the data set: Suppression of acid-induced swallowing movements in the anesthetized rat. The class given is in vivo. An excerpt:
A principal endogenous irritant in the linings of the upper aerodigestive tract is hydrochloric acid. Acid stimulations of the mucosa of the pharynx will elicit reflex swallowing. […] In a rat animal model, solutions of organic acids such as acetic acid and citric acid were effective in eliciting swallowing [Kajii et al., Sour taste stimulation facilitates reflex swallowing from the pharynx and larynx in the rat Physiology & Behavior 77: 321-325, 2002]. These methods for measuring sensory responses to acid can be adapted for screening the activity of DIPA-1-9. An agent that stimulates swallowing or an agent that suppress the acid challenge may then have utility in relieving dysphagia or the discomfort of heartburn, respectively. Preliminary experiments were conducted at the Pavlov Institute of Physiology, St. Petersburg, Russia, using adult male Wistar rats (see Table 11) and Wei (US 0.2015/0111852 A1). Swallowing movements was identified as the electromyogram activity and could also be visualized as laryngeal movement. Work is in progress to get more results for DIPA-1-9.

Data set [7] has as its system anesthetized rat. The data set is described as follows: In vivo transdermal activity: shaking after topical application to abdominal skin of anesthetized rat. Conditions: pure compound 20 μL on abdominal skin, counted 40 min. Here is the method: Shaking frequency was counted for 40 min after topical application.
The importance of water solubility for permeation was further illustrated in studies on the abdominal skin of anesthetized rat. […] The pharmacokinetic determinants of bioactivity are precise. Thus, for the avoidance of cold discomfort, DIPA-1-9 has to reach the receptors in the stratum basale but not “over-stimulate”.

Data set [8] in a line: Water solubility of 1-dialkylphosphorylalkanes. The class given is physicochemical. As to conditions: water. An excerpt: The DIPA compounds are colorless liquids with a density less than water. These structures differ from those described by Rowsell and Spring U.S. Pat. No. 4,070,496 because '496 structures have their “head” (phosphine oxide group) covered by larger, more lipophilic groups. […] The applicant synthesized these analogs (which are achiral, by contrast to the structures of '496 which are >95% chiral). […] This increased water-solublility is striking (Table 3). […] The DIPA analogs are now mobile in the extracellular fluids and permeate between cells to access nerve endings in the stratum basale.

Data set [9] relates to oropharynx and esophagus. The data set is described as follows: Sensory events and cold discomfort of compounds on throat, chest and body.
Text: The terms “icy cold” is used to describe this adverse event in the throat.
Most likely, the compound rapidly distributed and activated cold sensations in the eosophageal lining.
Data set [10] has as its system dorsal surface of the tongue. Conditions: average of 6 subjects; cited from earlier work.

Converted amounts (≈) assume the structure as drawn. “Also recorded” adds a separate entry of the source.

This is an account of results in patent US11406649B2, “Treatment of upper aerodigestive tract disorders and cough” (IVIEW THERAPEUTICS, INC., priority 2018, dated 2022).

cloned hTRPM8 channel, sequence (Q7Z2W7 whole entry): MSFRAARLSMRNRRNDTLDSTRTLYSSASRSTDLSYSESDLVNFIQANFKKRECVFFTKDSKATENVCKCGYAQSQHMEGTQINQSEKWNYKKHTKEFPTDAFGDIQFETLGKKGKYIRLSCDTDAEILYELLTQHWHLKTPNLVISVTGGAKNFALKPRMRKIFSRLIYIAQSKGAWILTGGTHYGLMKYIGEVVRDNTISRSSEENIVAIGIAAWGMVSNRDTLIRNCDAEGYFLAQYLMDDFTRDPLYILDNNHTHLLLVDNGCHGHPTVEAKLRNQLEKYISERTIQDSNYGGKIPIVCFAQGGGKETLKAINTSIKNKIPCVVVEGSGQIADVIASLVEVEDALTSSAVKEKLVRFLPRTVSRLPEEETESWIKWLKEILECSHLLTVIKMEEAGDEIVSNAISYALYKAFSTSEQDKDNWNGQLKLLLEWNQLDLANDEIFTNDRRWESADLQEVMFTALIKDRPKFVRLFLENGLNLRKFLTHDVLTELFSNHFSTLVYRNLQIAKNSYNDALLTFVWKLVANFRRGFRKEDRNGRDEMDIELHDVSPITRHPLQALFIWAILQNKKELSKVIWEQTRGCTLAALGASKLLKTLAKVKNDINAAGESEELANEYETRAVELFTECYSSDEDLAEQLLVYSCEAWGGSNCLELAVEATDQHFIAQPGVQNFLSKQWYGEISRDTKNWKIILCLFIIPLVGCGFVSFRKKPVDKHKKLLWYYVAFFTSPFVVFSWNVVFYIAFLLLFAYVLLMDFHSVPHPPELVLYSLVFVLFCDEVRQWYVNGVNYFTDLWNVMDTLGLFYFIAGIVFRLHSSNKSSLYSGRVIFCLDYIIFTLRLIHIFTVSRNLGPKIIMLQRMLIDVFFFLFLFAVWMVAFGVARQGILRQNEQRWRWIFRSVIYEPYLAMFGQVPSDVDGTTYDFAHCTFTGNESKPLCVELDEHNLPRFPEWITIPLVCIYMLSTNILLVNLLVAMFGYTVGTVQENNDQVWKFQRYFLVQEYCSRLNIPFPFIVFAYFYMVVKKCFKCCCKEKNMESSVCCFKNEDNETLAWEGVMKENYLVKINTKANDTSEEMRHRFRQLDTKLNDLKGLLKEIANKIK
TRPM8, sequence (Q8R4D5 whole entry): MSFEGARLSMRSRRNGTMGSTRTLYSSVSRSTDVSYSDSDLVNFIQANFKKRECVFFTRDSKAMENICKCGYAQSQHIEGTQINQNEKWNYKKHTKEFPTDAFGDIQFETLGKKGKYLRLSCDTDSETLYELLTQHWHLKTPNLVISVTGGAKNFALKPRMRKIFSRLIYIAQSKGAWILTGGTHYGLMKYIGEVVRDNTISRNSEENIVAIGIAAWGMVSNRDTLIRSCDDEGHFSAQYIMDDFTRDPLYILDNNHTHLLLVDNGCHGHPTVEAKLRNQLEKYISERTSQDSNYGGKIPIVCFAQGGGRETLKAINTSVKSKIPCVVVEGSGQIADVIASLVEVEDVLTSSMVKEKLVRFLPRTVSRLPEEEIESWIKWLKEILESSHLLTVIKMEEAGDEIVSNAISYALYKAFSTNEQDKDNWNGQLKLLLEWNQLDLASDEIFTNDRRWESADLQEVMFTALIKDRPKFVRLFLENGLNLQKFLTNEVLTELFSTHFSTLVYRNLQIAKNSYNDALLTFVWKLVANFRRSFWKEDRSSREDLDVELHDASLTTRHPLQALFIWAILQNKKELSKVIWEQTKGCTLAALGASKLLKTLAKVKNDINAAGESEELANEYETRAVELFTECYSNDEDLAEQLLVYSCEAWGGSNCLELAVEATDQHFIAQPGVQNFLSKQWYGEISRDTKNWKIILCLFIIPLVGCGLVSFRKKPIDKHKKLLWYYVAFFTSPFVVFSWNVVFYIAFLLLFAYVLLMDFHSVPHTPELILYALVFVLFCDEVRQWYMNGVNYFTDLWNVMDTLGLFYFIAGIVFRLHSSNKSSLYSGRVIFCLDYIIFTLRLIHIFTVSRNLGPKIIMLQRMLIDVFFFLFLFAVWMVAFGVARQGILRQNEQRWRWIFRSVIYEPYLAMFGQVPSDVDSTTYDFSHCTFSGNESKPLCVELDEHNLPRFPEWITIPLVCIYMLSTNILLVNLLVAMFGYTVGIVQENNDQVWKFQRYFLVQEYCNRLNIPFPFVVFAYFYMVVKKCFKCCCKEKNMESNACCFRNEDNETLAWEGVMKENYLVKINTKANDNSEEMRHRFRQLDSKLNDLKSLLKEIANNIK

Turning to `COc1ccc2c3c1O[C@H]1[C@@H](O)C=C[C@H]4[C@@H](C2)N(C)CC[C@@]341` [Codeine, reference compound], the cough frequency entry in data set [1] is listed as “significantly inhibited cough frequency”.

For the compound `CCCCCCCP(=O)(C(C)C)C(C)C` [DIPA-1-7, 1-Di(isopropyl)-phosphinoyl-heptane], in [2], the “potency for activation of TRPM8 relative to 3,4-6” value is reported as approximately 10 × and the “potency for activation of TRPM8 relative to 3,4-7” value is recorded as approximately 5 ×. Further, the “sensory effects” value in data set [3] (5 mg/mL in cherry-flavored syrup) was “cold, icy cold, and adverse tastes; also recorded: icy pain in the back of the throat”. Further, the Sensation entry in [3] (5 mg/mL in cherry-flavored syrup, ~0.8 mL) was “painful cold”. Also, the “duration of unpleasant tastes” value in data set [3] (metallic, organic solvent-like, harsh) is “at least 15 min”. The “penetration of excised skin” value in [4] was “very active in penetrating the excised skin”. Besides, the “flux relative to DIPA-1-9” value in data set [4] (gel, 8 hr) is approximately 5 ×. In addition, in data set [4] (propylene glycol-oleyl alcohol (50:50) or Lauroglycol 90 added to gel), the “decrease in rate of permeation by added standard enhancers” value is listed as approximately 50%. Further, in [5] (L-menthol = 1.0), the “Relative Potency to L-menthol” value came to 5.4. The “TRPM8 Relative Potency” value in data set [5] (Table 8, DIPA-1-7 = 1) is listed as 1. The EC50 in data set [6] (anesthetized rat) amounted to 820 ± 80 µg/mL (≈ 3.53 mM). The “Relative Potency” value in data set [6] (suppression of acid-induced swallowing) came out at 0.11. In addition, in data set [7], the “shaking after topical application” value is on record as “vigorous shaking; also recorded: robust shaking”. In addition, the solubility in [8] is more than 300 mg/mL. Further, in data set [9] (DIPA-1-9 up to 12 mg per unit), the “icy cold / pain in throat” value is “icy cold”. The “cold in the chest / behind sternum” value in data set [9] (in vivo) is recorded as “spreads behind the sternum, into the chest”. Also, the taste entry in [9] (oral cavity / tongue) was “this taste is present”.

`CC(C)[C@@H]1CC[C@@H](C)C[C@H]1O` [Menthol, reference compound]: in data set [10], the “Threshold, μg (cooling on tongue)” value was 0.25 µg. Moreover, in [9] (menthol 5 mg in an orally dissolving tablet), the sensory side-effects result is listed as “chest discomfort”.

One may read the EC50 as the concentration giving half of the maximal effect. As a reminder, the solubility is the concentration that dissolves in the medium under given conditions. Higher therefore signals a readily soluble substance.
